Results taken from patent US12679878B2, “CRF2 receptor agonists and their use in therapy” (SANOFI, priority 2020, dated 2026).
Converted amounts (≈) assume the structure as drawn. Like-named read-outs stand apart in the source and are kept apart here. Starred links: 1 amine or outer side, 2 acyl side, 3 side chain; linkers in the order of their positions; H or OH if unused. Non-standard residues stand in square brackets, D forms with d. Residues, ends and D or L forms follow the SMILES beside them. Groups on a side chain read outwards from the residue. *: point of attachment. C16 diacid = O=C(O)CCCCCCCCCCCCCCC(=O)*; γGlu = O=C(O)[C@H](CCC(=O)[*:2])N[*:1]; Aib = CC(C)(N)C(=O)O

Assays:
[1] = Chemical stability as % loss by LC-UV, 28 days 40° C. vs 5° C. (Example 19.11); format: physicochemical
Description: (§1) As for example 15 above, also the chemical stability of representative examples of these FA modified peptides has been assessed, using LC-UV instead of light scattering. Solubility and chemical stability were studied in 100 mM phosphate buffer (pH 7.4) and 100 mM acetate buffer (pH 4.5). Test compound powders were dissolved in both buffers at a target concentration of 10 mg/mL and incubated for 1 hour at room temperature. After centrifugation at 2500 rcf for 15 minutes, […] of supernatant was diluted with […] of the incubation buffer and analyzed by LC-UV (Acquity UPLC-DAD, Waters). Solubility was calculated by comparing the peak area of the test compound in the buffer sample with the peak area of the same compound dissolved at 0.5 mg/ml in water:acetonitrile 1:1, 0.1% formic acid.
From the centrifuged supernatant, two additional […] aliquots were collected and diluted with […] of incubation buffer. One aliquot was stored at 5° C., while the other was stored at 40° C. After 28 days, the samples were analyzed by LC-UV. Chemical stability was calculated as % loss using the following equations: • Chemical stability (as % loss)=[(purity after 28 days at 5° C.)−(purity after 28 days at 40° C.)]×100/(purity after 28 days at 5° C.) % purity=[(peak area compound)×100/(total peak area)]

[2] = In vitro plasma stability, rat plasma (Example 19.11); format: in vitro ADME, Sprague Dawley rats; parameters: remaining at 2 h: dose or concentration left out as unconfirmed; conditions: 37° C.; for remaining at 2 h: male, Sprague Dawley, rat, plasma
Description: (§2) In vitro plasma metabolic stability was studied in male Sprague Dawley rats and human. Test compound were incubated […] for 2 hours at 37° C. At each time point (0, 0.25, 1 and 2 h), samples were prepared for analysis by means of a single step protein precipitation technique by adding 150 μL of ethanol, 0.1% formic acid to 50 μL aliquots of plasma. Samples were mixed by vortex for homogeneity and then subjected to centrifugation at 14000 rpm for 15 min. The supernatant (100 μL) was collected, diluted with 100 μL of water, 0.1% formic acid and analyzed by LC-HRMS (TripleTOF 6600+, AB Sciex). For each test compound, the area ratios at each time point were compared to the 0 h area ratio and converted to a percentage remaining.

CRF1R receptor = biological target: T1, CRF1R receptor (Homo sapiens, UniProt P34998); assay: cAMP activity at anti-target CRF1R, CHO-K1 cell line clone 2 (Example 19.10); format: cell-based; conditions: for Emax: 100% = Sauvagine at 100 nM; for CRF1/CRF2 ratio: ratio of CRF1 EC50 to CRF2 EC50
T1 construct: host or cells: CHO-K1 clone 2
T1 sequence (P34998 24-415): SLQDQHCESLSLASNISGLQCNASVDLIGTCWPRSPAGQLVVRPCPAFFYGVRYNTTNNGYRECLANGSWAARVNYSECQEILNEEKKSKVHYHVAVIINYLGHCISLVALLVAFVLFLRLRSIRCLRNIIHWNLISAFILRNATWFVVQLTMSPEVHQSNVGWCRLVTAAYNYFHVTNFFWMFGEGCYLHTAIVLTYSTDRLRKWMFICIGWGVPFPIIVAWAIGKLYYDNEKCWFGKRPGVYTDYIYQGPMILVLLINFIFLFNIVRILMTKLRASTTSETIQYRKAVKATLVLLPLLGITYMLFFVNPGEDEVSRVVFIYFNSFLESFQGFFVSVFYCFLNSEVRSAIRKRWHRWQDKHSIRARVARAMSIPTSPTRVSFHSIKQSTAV
Method in brief: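 A CRF1R-overexpressing CHO-K1 line (clone 2) was grown in F12/10% FBS/G418 and frozen in aliquots before use. The cAMP assay followed the preceding procedure, with 100% activation defined by Sauvagine at 100 nM.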

[3] = In vitro plasma stability, human plasma (Example 19.11); format: in vitro ADME; parameters: dose or concentration left out as unconfirmed; conditions: 37° C.
Description: as §2

[4] = Buffer solubility by LC-UV, pH 7.4 phosphate and pH 4.5 acetate (Example 19.11); format: physicochemical; conditions: target 10 mg/mL
Description: as §1

human CRF2α receptor = biological target: T2, human CRF2α receptor (Homo sapiens, UniProt Q13324); assay: cAMP agonism at human CRF2α receptor in TeloHEAC cells, FA modified peptides (Example 19.9); format: cell-based; conditions: 0% HSA, relative to urocortin 2
T2 construct: expressed in transfected cells; host or cells: TeloHEAC
T2 sequence (Q13324 1-411): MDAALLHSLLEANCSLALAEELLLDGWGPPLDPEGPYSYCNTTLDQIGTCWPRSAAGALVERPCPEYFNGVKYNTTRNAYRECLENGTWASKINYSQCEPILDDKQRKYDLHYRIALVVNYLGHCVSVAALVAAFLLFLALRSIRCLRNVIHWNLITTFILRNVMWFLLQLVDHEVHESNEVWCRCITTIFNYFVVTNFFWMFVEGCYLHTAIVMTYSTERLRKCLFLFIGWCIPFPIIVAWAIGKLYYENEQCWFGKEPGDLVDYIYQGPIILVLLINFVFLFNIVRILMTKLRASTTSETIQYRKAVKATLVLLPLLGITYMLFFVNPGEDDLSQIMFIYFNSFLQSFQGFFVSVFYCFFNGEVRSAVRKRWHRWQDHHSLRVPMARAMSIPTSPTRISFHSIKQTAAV
Method in brief: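 Efficacy and EC50 are referenced to 100 nM urocortin 2 as 100%, with cAMP measured as the 665/620 nm HTRF ratio after 1 h at room temperature. Compounds (0.5 mM DMSO stock, 16 twofold dilutions) acted 30 min at 37 °C on CRF2α-expressing TeloHEAC cells, buffer containing IBMX and 0% or 0.2% HSA.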

[5] = 0% HSA, CRF1R CHO-K1 clone 2, read-out: EC50 [nM] 0% HSA
[6] = Table 20 side-to-side comparison, read-out: CRF1 EC50
[7] = pH 7.4, 100 mM phosphate buffer

| Compound | % loss (chemical stability) ([1]; pH 4.5) [%] | % loss (chemical stability) ([1]; pH 7.4) [%] | % remaining at 2 hours ([2]; 120 min) [%] | remaining at 2 h [2] [%] | EC50 (CRF1R receptor; [5]) [nM] | Emax (CRF1R receptor; CRF1R CHO-K1 clone 2) [%] | EC50 (CRF1R receptor; [6]) [nM] | CRF1/CRF2 ratio (CRF1R receptor) | remaining at 2 h [3] [%] | solubility at 1 h ([4]; pH 4.5, 100 mM acetate buffer) [µg/mL] | solubility at 1 h [4, 7] [µg/mL] | EC50 (human CRF2α receptor) [nM] |
| --- | --- | --- | --- | --- | --- | --- | --- | --- | --- | --- | --- | --- |
| CC[C@H](C)[C@H](N)C(=O)N[C@H](C(=O)N[C@@H](CC(C)C)C(=O)N[C@@H](CO)C(=O)N[C@@H](CC(C)C)C(=O)N[C@@H](CC(=O)O)C(=O)N[C@@H](C(=O)N1CCC[C@H]1C(=O)N[C@H](C(=O)N[C@@H](CCCCN)C(=O)N[C@@H](CC(C)C)C(=O)N[C@@H](CCCCNC(=O)CC[C@H](NC(=O)CCCCCCCCCCCCCCC(=O)O)C(=O)O)C(=O)N[C@@H](CCC(N)=O)C(=O)N[C@H](C(=O)N[C@@H](CC(C)C)C(=O)N[C@@H](CC(C)C)C(=O)N[C@@H](CCCCN)C(=O)N[C@@H](CCC(N)=O)C(=O)N[C@@H](CCC(=O)O)C(=O)N[C@@H](CCCNC(=N)N)C(=O)N[C@@H](CCC(N)=O)C(=O)N[C@@H](CCCCN)C(=O)NC(C)(C)C(=O)N[C@@H](CCC(N)=O)C(=O)N[C@@H](CCCNC(=N)N)C(=O)N[C@@H](CCC(=O)O)C(=O)N[C@@H](CCC(N)=O)C(=O)N[C@@H](C)C(=O)N[C@@H](CCC(=O)O)C(=O)N[C@@H](CCCCN)C(=O)N[C@@H](CC(N)=O)C(=O)N[C@@H](CCCCN)C(=O)N[C@@H](CCC(N)=O)C(=O)N[C@H](C(=O)N[C@@H](CC(C)C)C(=O)N[C@@H](C)C(=O)N[C@@H](CCC(N)=O)C(=O)N[C@H](C(N)=O)C(C)C)[C@@H](C)CC)[C@@H](C)CC)[C@@H](C)CC)C(C)C)C(C)C [compound 187] (H-IVLSLD[dV]PIKLK([γGlu-C16 diacid])QILLKQERQK[Aib]QREQAEKNKQILAQV-NH2) | 0 | 31 | 92 | 102 | > 100 | 43.8 | > 100 | >500 | 97 | 8200 (≈ 1690 µM) | 8800 (≈ 1810 µM) | 0.44 |
| CC[C@H](C)[C@H](N)C(=O)N[C@H](C(=O)N[C@@H](CC(C)C)C(=O)N[C@@H](CO)C(=O)N[C@@H](CC(C)C)C(=O)N[C@@H](CC(=O)O)C(=O)N[C@@H](C(=O)N1CCC[C@H]1C(=O)N[C@H](C(=O)N[C@@H](CCCCN)C(=O)N[C@@H](CC(C)C)C(=O)N[C@@H](CCCCNC(=O)CC[C@H](NC(=O)CCCCCCCCCCCCCCC(=O)O)C(=O)O)C(=O)N[C@@H](CCC(N)=O)C(=O)N[C@H](C(=O)N[C@@H](CC(C)C)C(=O)N[C@@H](CC(C)C)C(=O)N[C@@H](CCCCN)C(=O)N[C@@H](CCC(N)=O)C(=O)N[C@@H](CCC(=O)O)C(=O)N[C@@H](CCCNC(=N)N)C(=O)N[C@@H](CCC(N)=O)C(=O)N[C@@H](CCCCN)C(=O)N[C@@H](CCCCN)C(=O)NC(C)(C)C(=O)N[C@@H](CCCNC(=N)N)C(=O)N[C@@H](CCC(N)=O)C(=O)N[C@@H](CCCCN)C(=O)N[C@@H](C)C(=O)N[C@@H](CCC(=O)O)C(=O)N[C@@H](CCCCN)C(=O)N[C@@H](CC(N)=O)C(=O)N[C@@H](CCCCN)C(=O)N[C@@H](CCC(N)=O)C(=O)N[C@H](C(=O)N[C@@H](CC(C)C)C(=O)N[C@@H](C)C(=O)N[C@@H](CCC(N)=O)C(=O)N[C@H](C(N)=O)C(C)C)[C@@H](C)CC)[C@@H](C)CC)[C@@H](C)CC)C(C)C)C(C)C [compound 189] (H-IVLSLD[dV]PIKLK([γGlu-C16 diacid])QILLKQERQKK[Aib]RQKAEKNKQILAQV-NH2; N-terminus assumed) | 0 | 48 | – | 101 | > 100 | 15 | > 100 | >500 | 97 | 9000 (≈ 1860 µM) | 6300 (≈ 1300 µM) | 3.49 |
| CC[C@H](C)[C@H](N)C(=O)N[C@H](C(=O)N[C@@H](CC(C)C)C(=O)N[C@@H](CO)C(=O)N[C@@H](CC(C)C)C(=O)N[C@@H](CC(=O)O)C(=O)N[C@@H](C(=O)N1CCC[C@H]1C(=O)N[C@H](C(=O)NCC(=O)N[C@@H](CC(C)C)C(=O)N[C@@H](CCCCNC(=O)CC[C@H](NC(=O)CCCCCCCCCCCCCCC(=O)O)C(=O)O)C(=O)N[C@@H](CCC(N)=O)C(=O)N[C@H](C(=O)N[C@@H](CC(C)C)C(=O)N[C@@H](CC(C)C)C(=O)N[C@@H](CCCCN)C(=O)N[C@@H](CCC(N)=O)C(=O)N[C@@H](CCC(=O)O)C(=O)N[C@@H](CCCNC(=N)N)C(=O)N[C@@H](CCC(N)=O)C(=O)N[C@@H](CCCCN)C(=O)N[C@@H](CCCCN)C(=O)NC(C)(C)C(=O)N[C@@H](CCCNC(=N)N)C(=O)N[C@@H](CCC(=O)O)C(=O)N[C@@H](CCC(N)=O)C(=O)N[C@@H](C)C(=O)N[C@@H](CCC(=O)O)C(=O)N[C@H](C(=O)N[C@@H](CC(N)=O)C(=O)N[C@@H](CCCCN)C(=O)N[C@@H](CCC(N)=O)C(=O)N[C@H](C(=O)N[C@@H](CC(C)C)C(=O)N[C@@H](C)C(=O)N[C@@H](CCC(N)=O)C(=O)N[C@H](C(N)=O)C(C)C)[C@@H](C)CC)[C@@H](C)O)[C@@H](C)CC)[C@@H](C)CC)C(C)C)C(C)C [compound 194] (H-IVLSLD[dV]PIGLK([γGlu-C16 diacid])QILLKQERQKK[Aib]REQAETNKQILAQV-NH2; N-terminus assumed) | – | – | – | 85 | > 100 | 21.6 | – | – | 101 | 7300 (≈ 1540 µM) | 700 (≈ 147 µM) | 0.11 |
